The values below come from patent US10383906B2, “Method for treating skin diseases with mangosteen rind extract” (XANTHO BIOTECHNOLOGY CO., LTD, priority 2015, dated 2019).

Structures are written as SMILES.

The test system of the experiment is TNCB-induced atopic dermatitis in mice ears. Briefly: TNCB-induced atopic dermatitis in mice: ear thickness, ear weight, ear appearance, histopathology. The class given is in vivo, BALB/c mice. The settings on record: for Pathological slice average inflammation degree (average severity of the pathological changes): mice ears, HE staining, after three weeks of daily test substance, scale Grade 1 minimal to Grade 5 extremely severe. The method, then: The animals used in the experiments were 8-week-old BALB/c mice (purchased from LESCO Biotech), the body weight were 25 to 28 g and were quarantined by veterinarians for one week before entering the breeding room. The animals were divided into 9 groups, 3 in each group, a total of 27 mices. The temperature of the breeding room was set at 21±2° C., the humidity was set at 30 to 70%, and the environment was set for 12/12 hour light-dark cycle with unlimited supply of food and water.
In the animal experiments, 2-chloro-1,3,5-trinitrobezene (TNCB) was used to induce atopic dermatitis in mice and acetone was used as the solvent to prepare 1% of TNCB which was applied to mice ears (once every 2 days, the volume was 4 ml/kg) one week prior to testings. […] In addition, for those groups that were simultaneously provided with test ointments and test oral substances, the oral dose was 60 mg/kg and the volume was 10 ml/kg. When TNCB and the test substance were given on the same day, in order to reduce the effect of interactions between each other, TNCB and test substance were given at least 1 hour apart. The mangosteen paste of 0.5%, 1%, 2%, 3%, 5% respectively contained 20 mg/kg, 40 mg/kg, 80 mg/kg, 120 mg/kg and 200 mg/kg of extract of mangosteen rind.
Changes in body weight and ear thickness of the mice were monitored twice weekly. Blood of all experimental animals were collected before TNCB induction, after the induction and before the test substance was given and when being sacrificed. After the blood was centrifuged at 3000 rpm for 30 minutes at 4° C., serum samples were obtained and stored.
All animals were sacrificed at the end of the third week after the test substance was given. Mice ears were removed, photographed and stored in 10% of formalin solution for histopathological observation. HE staining was used for the pathological observation (conducted by the National Laboratory Animal Center).
Data are expressed as means±standard deviation […] and Student's t-test was used to compare the differences among treatment groups. Asterisks indicate significant differences, *p<0.05; **p<0.01; ***p<0.001.

Setting [1] is: inner rind versus outer rind extract experiment (4%).

Turning to `CC(=O)OCC(=O)[C@@]1(O)CC[C@H]2[C@@H]3CCC4=CC(=O)CC[C@]4(C)[C@H]3[C@@H](O)C[C@@]21C` [1% Hydrocortisone Acetate, hydrocortisone acetate], the “Pathological slice average inflammation degree (average severity of the pathological changes)” value is 3 ± 0 Grade. Also, the “Inhibition rate, ear thickness” value (degree of swelling of mice ears, compared with the model group, mangosteen paste dose series) is reported as 52.7%. Moreover, the “Ear appearance after being sacrificed” value (ears removed at end of experiment (FIG. 4)) is recorded as “intact ear contour”. The “Inhibition rate, ear weight” value (ears weighed after sacrifice, compared with the model group, mangosteen paste dose series) was 82.4%. Also, under setting [1], the “Inhibition rate (%), ear thickness” value stood at 50.75% and the “Inhibition rate (%), ear weight” value stood at 68.91%. In addition, where the note is “listed as 1% hydrocortisone acetate”, the “Pathological slice average inflammation degree (average severity of the pathological changes)” value was 3 Grade.
